Among the data in patent publication US9315503B2, “Kinase inhibitors” (CHIESI FARMACEUTICI S.p.A., priority 2011, dated 2016) are IC50 values, retold here.

The structures appear in SMILES notation. Structures can show the parent of a compound that is named as a salt. A value given as a limit tells only on which side of the number the result lay.

One assay concerns the target T1, p38alpha (Homo sapiens, UniProt Q16539).
T1 construct: purchased Invitrogen PV3304
The assay is described as follows: P38Alpha enzyme inhibition assay (Alphascreen kinase activity assay). The assay is classed as biochemical. As to conditions: 100 pM p38alpha, 250 μM ATP, 2 hours pre-incubation at 25° C., read-out: p38α inhibition (IC50 values). How it is done:
P38Alpha Enzyme Inhibition Assay.
The inhibitory activity of compounds was determined using an Alphascreen® (Perkin Elmer) based kinase activity assay. Kinase reactions consisted of 25 mM HEPES pH 7.5, 10 mM MgCl2, 100 μM Na3VO4, 2 mM DTT, 0.05 mg/ml Tween 20, 100 pM p38alpha (Invitrogen, PV3304), 1% DMSO and 0.3 μg/ml ATF-2 fusion protein (New England Biolabs, 9224). Compounds were incubated under these conditions for 2 hours, at 25° C., prior to the initiation of the kinase activity by the addition of the 250 μM ATP. Reaction volumes were 20 uL. After 1 hr at 25° C. reactions were stopped by the adding 10 uL of 25 mM HEPES pH 7.5 containing 62.5 mM EDTA, 0.05% Triton X-100, 10% BSA and 0.83 ng/uL anti-phospho-ATF2 antibody (Abeam, ab28812). Detection was performed by measuring luminescence following the addition of Alphascreen Donor beads (Perkin Elmer 6765300) and Protein A Alphascreen Acceptor beads (Perkin Elmer 6760137), both at a final concentration of 20 ug/ml. IC50 values were determined from concentration-response curves.

For assay [1], the system named is LPS-stimulated TNFα release from PBMCs. Description: LPS-stimulated PBMC TNFα release assay. The following applies: inhibition of TNFα release, human PBMCs, LPS 10 ng/ml, 18 h, ELISA, read-out: p38α inhibition (IC50 values). The assay is classed as cell-based. How it is done:
LPS-Stimulated PBMC TNFα Release Assay.
Peripheral Blood Mononuclear Cells (PBMCs) were isolated from healthy human volunteer blood using a standard density gradient centrifugation technique. Citrated blood was placed onto Histopaque™ and centrifuged. The PBMCs were removed from the density gradient interface and washed in phosphate buffered saline (PBS). The PBMCs were suspended in RPMI 1640 medium (without serum), dispensed into a 96-well plate and incubated at 37° C. for 3 h in a humidified incubator. After incubation, the medium was replaced (with medium containing 1% foetal bovine serum) and the plate incubated at 37° C., for 1 h, in the presence of test compound or the appropriate vehicle. LPS (10 ng/ml), or an appropriate vehicle control, was then added to the cells and the plate returned to the incubator for 18 h. Cell-free supernatants were removed and assayed for TNFα levels using an ELISA kit from R&D Systems.
A dose response curve to each test compound was performed and the effect of compound in each experiment was expressed as a percentage inhibition of the control TNFα release. Dose response curves were plotted and compound potency (IC50) was determined. Compounds were tested in at least three separate experiments.
(ELISA stands for enzyme-linked immunosorbent assay.)

T1 sequence (Q16539 whole entry): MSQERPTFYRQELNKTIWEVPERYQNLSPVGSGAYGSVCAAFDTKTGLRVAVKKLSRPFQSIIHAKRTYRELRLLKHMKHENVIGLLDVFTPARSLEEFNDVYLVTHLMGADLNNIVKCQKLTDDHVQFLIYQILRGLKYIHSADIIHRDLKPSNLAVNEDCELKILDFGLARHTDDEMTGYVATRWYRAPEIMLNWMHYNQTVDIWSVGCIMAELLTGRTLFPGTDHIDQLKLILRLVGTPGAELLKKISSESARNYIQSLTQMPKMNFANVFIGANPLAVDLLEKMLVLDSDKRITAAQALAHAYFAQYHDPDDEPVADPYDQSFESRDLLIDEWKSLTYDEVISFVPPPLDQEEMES

Usually IC50 stands for the concentration at which inhibition is half-maximal. As for `Cc1ccc(-n2nc(C(C)(C)C)cc2NC(=O)N[C@H]2CC[C@@H](Oc3ccc4nnc(CCN5CCCC5)n4c3)c3ccccc32)cc1` [Example 1, 1-(5-tert-Butyl-2-p-tolyl-2H-pyrazol-3-yl)-3-{(1S,4R)-4-[3-(2-pyrrolidin-1-yl-ethyl)-[1,2,4]triazolo[4,3-a]pyridin-6-yloxy]-1,2,3,4-tetrahydro-naphthalen-1-yl}-urea], the results for the IC50 (on p38alpha; in assay [1]) were less than 10 nM and 10 to 100 nM, respectively.

`Cc1ccc(-n2nc(C(C)(C)C)cc2NC(=O)N[C@H]2CC[C@@H](Oc3ccc4nnc(CCN5CCN(C)CC5)n4c3)c3ccccc32)cc1` [Example 2, 1-(5-tert-Butyl-2-p-tolyl-2H-pyrazol-3-yl)-3-((1S,4R)-4-{3-[2-(4-methyl-piperazin-1-yl)-ethyl]-[1,2,4]triazolo[4,3-a]pyridin-6-yloxy}-1,2,3,4-tetrahydro-naphthalen-1-yl)-urea formate salt]: the IC50 on p38alpha was less than 10 nM; in assay [1] it was 10 to 100 nM. In the case of `Cc1ccc(-n2nc(C(C)(C)C)cc2NC(=O)N[C@H]2CC[C@@H](Oc3ccc4nnc(N5CCCCC5)n4c3)c3ccccc32)cc1` [Example 3], the IC50 (at p38alpha; in assay [1]) was less than 10 nM in each case.

For `Cc1ccc(-n2nc(C(C)(C)C)cc2NC(=O)N[C@H]2CC[C@@H](Oc3ccc4nnc(CN5CCNCC5)n4c3)c3ccccc32)cc1` [Example 7, 1-(5-tert-Butyl-2-p-tolyl-2H-pyrazol-3-yl)-3-[(1S,4R)-4-(3-piperazin-1-ylmethyl-[1,2,4]triazolo[4,3-a]pyridin-6-yloxy)-1,2,3,4-tetrahydro-naphthalen-1-yl]-urea], the IC50 is less than 10 nM at p38alpha and 100 to 1000 nM in assay [1].

Regarding `Cc1ccc(-n2nc(C(C)(C)C)cc2NC(=O)N[C@H]2CC[C@@H](Oc3ccc4nnc(NC(C)C)n4c3)c3ccccc32)cc1` [Example 8, 1-(5-tert-Butyl-2-p-tolyl-2H-pyrazol-3-yl)-3-[(1S,4R)-4-(3-isopropylamino-[1,2,4]triazolo[4,3-a]pyridin-6-yloxy)-1,2,3,4-tetrahydro-naphthalen-1-yl]-urea], the IC50 (on p38alpha; in assay [1]) was less than 10 nM throughout. Take `Cc1ccc(-n2nc(C(C)(C)C)cc2NC(=O)N[C@H]2CC[C@@H](Oc3ccc4nnc(CN5CCN(C)CC5)n4c3)c3ccccc32)cc1` [Example 14, 1-(5-tert-Butyl-2-p-tolyl-2H-pyrazol-3-yl)-3-{(1S,4R)-4-[3-(4-methyl-piperazin-1-ylmethyl)-[1,2,4]triazolo[4,3-a]pyridin-6-yloxy]-1,2,3,4-tetrahydro-naphthalen-1-yl}-urea formate salt]: in assay [1], the IC50 fell in the range of 10 to 100 nM.

As to `Cc1ccc(-n2nc(C(C)(C)C)cc2NC(=O)N[C@H]2CC[C@@H](Oc3ccc4nnc(CN5CCOCC5)n4c3)c3ccccc32)cc1` [Example 15, 1-(5-tert-Butyl-2-p-tolyl-2H-pyrazol-3-yl)-3-[(1S,4R)-4-(3-morpholin-4-ylmethyl-[1,2,4]triazolo[4,3-a]pyridin-6-yloxy)-1,2,3,4-tetrahydro-naphthalen-1-yl]-urea formate salt], the IC50 in assay [1] is less than 10 nM. With `Cc1ccc(-n2nc(C(C)(C)C)cc2NC(=O)N[C@H]2CC[C@@H](Oc3ccc4nnc(CN5CCCC5)n4c3)c3ccccc32)cc1` [Example 16, 1-(5-tert-Butyl-2-p-tolyl-2H-pyrazol-3-yl)-3-[(1S,4R)-4-(3-pyrrolidin-1-ylmethyl-[1,2,4]triazolo[4,3-a]pyridin-6-yloxy)-1,2,3,4-tetrahydro-naphthalen-1-yl]-urea], the IC50 in assay [1] was less than 10 nM. Turning to `C[C@@H]1CCC[C@H](C)N1c1nnc2ccc(O[C@@H]3CC[C@H](NC(=O)NC4CC4)c4ccccc43)cn12` [Example 117, 1-Cyclopropyl-3-{(1S,4R)-4-[3-((2S,6R)-2,6-dimethyl-piperidin-1-yl)-[1,2,4]triazolo[4,3-a]pyridin-6-yloxy]-1,2,3,4-tetrahydro-naphthalen-1-yl}-urea formate salt], the IC50 in assay [1] was less than 10 nM. In the case of `C[C@H]1CCCCN1c1nnc2ccc(O[C@@H]3CC[C@H](NC(=O)Nc4cc(C(C)(C)C)nn4-c4cccc(CN5CCCC5)c4)c4ccccc43)cn12` [Example 171, 1-[5-tert-Butyl-2-(3-pyrrolidin-1-ylmethyl-phenyl)-2H-pyrazol-3-yl]-3-{(1S,4R)-4-[3-((S)-2-methyl-piperidin-1-yl)-[1,2,4]triazolo[4,3-a]pyridin-6-yloxy]-1,2,3,4-tetrahydro-naphthalen-1-yl}-urea formate salt], the IC50 on p38alpha is less than 10 nM. With `C[C@H]1CCCCN1c1nnc2ccc(O[C@@H]3CC[C@H](NC(=O)Nc4cc(C(C)(C)C)nn4-c4ccc(CN5CCOCC5)cc4)c4ccccc43)cn12` [Example 176, 1-[5-tert-Butyl-2-(4-morpholin-4-ylmethyl-phenyl)-2H-pyrazol-3-yl]-3-{(1S,4R)-4-[3-((S)-2-methyl-piperidin-1-yl)-[1,2,4]triazolo[4,3-a]pyridin-6-yloxy]-1,2,3,4-tetrahydro-naphthalen-1-yl}-urea], on p38alpha, the IC50 was less than 10 nM.

In the case of `C[C@H]1CCCCN1c1nnc2ccc(O[C@@H]3CC[C@H](NC(=O)Nc4cc(C(C)(C)C)nn4-c4ccc(CN5CCN(C)CC5)cc4)c4ccccc43)cn12` [Example 178, 1-{5-tert-Butyl-2-[4-(4-methyl-piperazin-1-ylmethyl)-phenyl]-2H-pyrazol-3-yl}-3-{(1S,4R)-4-[3-((S)-2-methyl-piperidin-1-yl)-[1,2,4]triazolo[4,3-a]pyridin-6-yloxy]-1,2,3,4-tetrahydro-naphthalen-1-yl}-urea partial formate salt], at p38alpha, the IC50 was less than 10 nM. Still for that read-out and setting: under `C[C@H]1CCCCN1c1nnc2ccc(O[C@@H]3CC[C@H](NC(=O)Nc4cc(C(C)(C)C)nn4-c4ccc(CN5CCCC5)cc4)c4ccccc43)cn12` [Example 181, 1-[5-tert-Butyl-2-(4-pyrrolidin-1-ylmethyl-phenyl)-2H-pyrazol-3-yl]-3-{(1S,4R)-4-[3-((S)-2-methyl-piperidin-1-yl)-[1,2,4]triazolo[4,3-a]pyridin-6-yloxy]-1,2,3,4-tetrahydro-naphthalen-1-yl}-urea formate salt] stands less than 10 nM; under `C[C@H]1CCCCN1c1nnc2ccc(O[C@@H]3CC[C@H](NC(=O)Nc4cc(C(C)(C)C)nn4-c4ccc(CN5CCCCC5)cc4)c4ccccc43)cn12` [Example 182, 1-[5-tert-Butyl-2-(4-piperidin-1-ylmethyl-phenyl)-2H-pyrazol-3-yl]-3-{(1S,4R)-4-[3-((S)-2-methyl-piperidin-1-yl)-[1,2,4]triazolo[4,3-a]pyridin-6-yloxy]-1,2,3,4-tetrahydro-naphthalen-1-yl}-urea formate salt], less than 10 nM. Still for that read-out and setting: to `C[C@H]1CCCCN1c1nnc2ccc(O[C@@H]3CC[C@H](NC(=O)Nc4cc(C(C)(C)C)nn4-c4ccc(CN5CCC(F)CC5)cc4)c4ccccc43)cn12` [Example 183, 1-{5-tert-Butyl-2-[4-(4-fluoro-piperidin-1-ylmethyl)-phenyl]-2H-pyrazol-3-yl}-3-{(1S,4R)-4-[3-((S)-2-methyl-piperidin-1-yl)-[1,2,4]triazolo[4,3-a]pyridin-6-yloxy]-1,2,3,4-tetrahydro-naphthalen-1-yl}-urea formate salt] belongs less than 10 nM. Take `CCN(C)Cc1ccc(-n2nc(C(C)(C)C)cc2NC(=O)N[C@H]2CC[C@@H](Oc3ccc4nnc(N5CCCC[C@@H]5C)n4c3)c3ccccc32)cc1` [Example 184, 1-(5-tert-Butyl-2-{4-[(ethyl-methyl-amino)-methyl]-phenyl}-2H-pyrazol-3-yl)-3-{(1S,4R)-4-[3-((S)-2-methyl-piperidin-1-yl)-[1,2,4]triazolo[4,3-a]pyridin-6-yloxy]-1,2,3,4-tetrahydro-naphthalen-1-yl}-urea formate salt]: the IC50 at p38alpha was less than 10 nM. For `COCCN(C)Cc1ccc(-n2nc(C(C)(C)C)cc2NC(=O)N[C@H]2CC[C@@H](Oc3ccc4nnc(N5CCCC[C@@H]5C)n4c3)c3ccccc32)cc1` [Example 185, 1-[5-tert-Butyl-2-(4-{[(2-methoxy-ethyl)-methyl-amino]-methyl}-phenyl)-2H-pyrazol-3-yl]-3-{(1S,4R)-4-[3-((S)-2-methyl-piperidin-1-yl)-[1,2,4]triazolo[4,3-a]pyridin-6-yloxy]-1,2,3,4-tetrahydro-naphthalen-1-yl}-urea formate salt], the IC50 at p38alpha was less than 10 nM.
